According to patent US20240150377A1, “MODULATORS OF CYSTIC FIBROSIS TRANSMEMBRANE CONDUCTANCE REGULATOR” (VERTEX PHARMACEUTICALS INCORPORATED, priority 2020, published 2024):
Read-outs that look alike come from different tables or passages of the source.

What was measured:
[1] = target: T1, CFTR (Homo sapiens, UniProt P13569, DEL508-508); test: HBE assay: Ussing chamber assay of CFTR-mediated short-circuit currents; type: cell-based; conditions: read-out: HBE Activity at 10 μM (%)
T1 construct: endogenous in cells; host or cells: primary human bronchial epithelial cells from CF subjects (F508del/MF-HBE), differentiated at air-liquid interface
T1 sequence (P13569 with tags, fused parts or gaps DEL508-508): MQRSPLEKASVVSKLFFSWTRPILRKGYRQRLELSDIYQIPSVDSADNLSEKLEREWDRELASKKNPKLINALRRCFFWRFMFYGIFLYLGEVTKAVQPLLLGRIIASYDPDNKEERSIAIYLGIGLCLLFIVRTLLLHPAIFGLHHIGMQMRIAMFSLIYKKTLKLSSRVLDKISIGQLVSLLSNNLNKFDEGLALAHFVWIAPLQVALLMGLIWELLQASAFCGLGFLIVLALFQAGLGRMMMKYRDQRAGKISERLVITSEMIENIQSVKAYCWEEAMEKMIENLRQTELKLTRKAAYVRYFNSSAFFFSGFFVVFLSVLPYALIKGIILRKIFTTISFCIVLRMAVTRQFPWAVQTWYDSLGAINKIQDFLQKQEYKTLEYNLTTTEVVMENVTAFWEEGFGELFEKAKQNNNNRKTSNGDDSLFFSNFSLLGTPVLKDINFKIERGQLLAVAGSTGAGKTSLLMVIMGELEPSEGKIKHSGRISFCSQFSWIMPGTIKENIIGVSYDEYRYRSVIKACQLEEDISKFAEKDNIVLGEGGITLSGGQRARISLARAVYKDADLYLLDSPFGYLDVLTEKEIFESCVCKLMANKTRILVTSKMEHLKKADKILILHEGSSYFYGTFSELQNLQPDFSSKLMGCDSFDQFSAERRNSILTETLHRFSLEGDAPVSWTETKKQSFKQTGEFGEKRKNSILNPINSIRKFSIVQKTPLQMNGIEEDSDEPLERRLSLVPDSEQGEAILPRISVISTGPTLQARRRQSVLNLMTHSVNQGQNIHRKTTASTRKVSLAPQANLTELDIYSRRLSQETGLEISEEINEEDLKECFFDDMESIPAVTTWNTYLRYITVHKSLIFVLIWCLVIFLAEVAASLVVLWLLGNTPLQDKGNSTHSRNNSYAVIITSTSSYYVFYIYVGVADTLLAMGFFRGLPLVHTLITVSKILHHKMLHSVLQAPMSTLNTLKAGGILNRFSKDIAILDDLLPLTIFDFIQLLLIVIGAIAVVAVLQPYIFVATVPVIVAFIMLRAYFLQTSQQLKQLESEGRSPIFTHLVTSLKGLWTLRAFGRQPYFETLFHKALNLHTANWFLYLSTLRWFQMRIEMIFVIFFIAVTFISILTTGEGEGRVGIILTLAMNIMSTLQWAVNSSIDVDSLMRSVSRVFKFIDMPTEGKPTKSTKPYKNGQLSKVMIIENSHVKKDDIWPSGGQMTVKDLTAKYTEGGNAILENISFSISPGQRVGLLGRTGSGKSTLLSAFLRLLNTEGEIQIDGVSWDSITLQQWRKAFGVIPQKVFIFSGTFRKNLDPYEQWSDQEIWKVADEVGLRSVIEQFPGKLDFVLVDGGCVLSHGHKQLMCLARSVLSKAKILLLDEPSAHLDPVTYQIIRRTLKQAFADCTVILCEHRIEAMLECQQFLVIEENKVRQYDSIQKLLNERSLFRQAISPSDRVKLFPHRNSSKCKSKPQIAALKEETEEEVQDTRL
Summary of the method: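 CFTR-mediated Isc (μA/cm²) equals the peak response to apical 20 μM forskolin minus the residual after a 20 μM each BPO/GlyH-101/CFTR inhibitor 172 cocktail, recorded in Ussing chambers at Vhold 0 mV, 37 °C, pH 7.4, with 30 μM apical amiloride. Cells were F508del/MF HBE cultures preincubated 18-24 h with corrector (concentration range or 10 μM) plus 1 μM ivacaftor in 20% human serum.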

[2] = target: T1, CFTR; test: HBE2 assay: Ussing chamber assay of CFTR-mediated short-circuit currents; type: cell-based; conditions: F508del/MF-HBE cells, 18-24 hours, 20% human serum; for Emax: read-out: HBE2 Max activity (%)
Summary of the method: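 F508del/MF-HBE cultured >14 days at air-liquid interface, mounted in Ussing chambers; transepithelial short-circuit current recorded under voltage clamp (Vhold=0 mV) at 37 °C. CFTR-mediated ISC (μA/cm^2) taken as peak forskolin response relative to steady-state current after inhibition; corrector activity assessed this way.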

[3] = 3 μM corrector, with 44 nM potentiator
[4] = corrector at a range of concentrations with 44 nM potentiator

| SMILES | HBE2 Activity at 3 μM (%) ([2]; 3 μM, with 44 nM potentiator) | HBE2 Activity at 3 μM (%) [2, 3] | also measured |
| --- | --- | --- | --- |
| CCCOc1cnc(CN2C(=O)c3cccc(c3)S(=O)(=O)Nc3nc(cc(-c4c(C)cccc4C)n3)OC[C@H]2CC(C)C)nc1 [Compound 1523] | +++ (+++ is >60+) |  | activation at 10 µM ([1]; HBE assay, 10 μM): > 60% |
| CCCOc1cnc(CN2C(=O)c3cccc(c3)S(=O)(=O)Nc3nc(cc(-c4c(C)cccc4C)n3)OC[C@H]2CC2CCC2)nc1 [Compound 1522] | +++ (+++ is >60+) |  | activation at 10 µM ([1]; HBE assay, 10 μM): > 60%; EC50 ([2]; with 44 nM potentiator): < 1000 nM; Emax ([2]; with 44 nM potentiator): > 60% |
| Cc1cccc(C)c1-c1cc2nc(n1)NS(=O)(=O)c1cccc(c1)C(=O)N(Cc1cncc(N3CC[C@H]3C)n1)[C@H](CC(C)(C)C)CO2 [Compound 1512] |  |  | activation at 10 µM [1]: > 60%; EC50 ([2]; with 44 nM potentiator): < 1000 nM; Emax ([2]; with 44 nM potentiator): > 60% |
| Cc1cccc(C)c1-c1cc2nc(n1)NS(=O)(=O)c1cccc(c1)C(=O)N(Cc1ccc3cc(C4CC4)n(C)c3n1)[C@H](CC(C)(C)C)CO2 [Compound 1304, (11R)-12-[(2-Cyclopropyl-1-methyl-pyrrolo[2,3-b]pyridin-6-yl)methyl]-6-(2,6-dimethylphenyl)-11-(2,2-dimethylpropyl)-2,2-dioxo-9-oxa-2λ^6-thia-3,5,12,19-tetrazatricyclo[12.3.1.14,8]nonadeca-1(18),4(19),5,7,14,16-hexaen-13-one] | +++ (+++ is >60+) |  | activation at 10 µM ([1]; HBE assay, 10 μM): > 60% |
| CCN(CCOC)c1cncc(CN2C(=O)c3cccc(c3)S(=O)(=O)Nc3nc(cc(-c4c(C)cccc4C)n3)OC[C@H]2CC(C)(C)C)n1 [Compound 1580] | +++ (+++ is >60+) |  | EC50 ([2]; with 44 nM potentiator): < 1000 nM; Emax ([2]; with 44 nM potentiator): > 60% |
| COCC1CC2(CCN2c2cncc(CN3C(=O)c4cccc(c4)S(=O)(=O)Nc4nc(cc(-c5c(C)cccc5C)n4)OC[C@H]3CC(C)(C)C)n2)C1 (some centres unmarked) [Compound 1707] | +++ (+++ is >60+) |  |  |
| Cc1cccc(C)c1-c1cc2nc(n1)NS(=O)(=O)c1cccc(c1)C(=O)N(Cc1cncc(N(C)C3CCC3)n1)[C@H](C1CC(C)(C)C1)CO2 (stereo in doubt) [Compound 1896] |  | +++ (+++ is >60+) |  |
| Cc1cccc(C)c1-c1cc2nc(n1)NS(=O)(=O)c1cccc(c1)C(=O)N(Cc1cncc(N(C)C3CCC3)n1)[C@@H]1CN(CCC(C)(C)C)C[C@H]1O2 [Compound 1741] |  | ++ (++ is 30-60%) |  |
| CCn1c(C)cc2ncc(CN3C(=O)c4cccc(c4)S(=O)(=O)Nc4nc(cc(-c5c(C)cccc5C)n4)OC[C@H]3CC(C)(C)C)nc21 [Compound 1910] |  | +++ (+++ is >60+) |  |
| Cc1cccc(C)c1-c1cc2nc(n1)NS(=O)(=O)c1cccc(c1)C(=O)N(Cc1cncc(N(C)CC(C)(C)C)n1)[C@H](CCC1CC1)CO2 [Compound 1719] |  | +++ (+++ is >60+) | EC50 [2, 4]: < 1000 nM; Emax ([2]; with 44 nM potentiator): > 60% |
| Cc1cc(C)c(-c2cc3nc(n2)NS(=O)(=O)c2cccc(c2)C(=O)N(Cc2cncc(N(C)C4CCC4)n2)[C@H](CC(C)(C)C)CO3)c(C)c1 [Compound 1729] |  | +++ (+++ is >60+) |  |
| Cc1cccc(C)c1-c1cc2nc(n1)NS(=O)(=O)c1cccc(c1)C(=O)N(Cc1cncc(N(C)C(C)C)n1)[C@H](CC1(C)CCC1)CO2 [Compound 1745] |  | +++ (+++ is >60+) |  |
| Cc1cccc(C)c1-c1cc2nc(n1)NS(=O)(=O)c1cccc(c1)C(=O)N(Cc1ncc(OC(C)C)cn1)[C@H](C(C)C1CC1)CO2 (stereo in doubt) [Compound 1557] | + (+ is <300)) |  |  |
| Cc1cccc(C)c1-c1cc2nc(n1)NS(=O)(=O)c1cccc(c1)C(=O)N(Cc1ncc(N3CC(C)(C)C3)cn1)[C@H](CC1CCC1)CO2 [Compound 1594] |  |  | EC50 ([2]; with 44 nM potentiator): < 1000 nM; Emax ([2]; with 44 nM potentiator): > 60% |
| Cc1cccc(C)c1-c1cc2nc(n1)NS(=O)(=O)c1cccc(c1)C(=O)N(Cc1cncc(N3CCC[C@H]4CC[C@H]43)n1)[C@H](CC(C)(C)C)CO2 (single isomer, unassigned) [Compound 1316] | +++ (+++ is >60+) |  |  |
| Cc1cccc(C)c1-c1cc2nc(n1)NS(=O)(=O)c1cccc(c1)C(=O)N(Cc1cncc(N3C(=O)CCC3C(C)C)n1)[C@H](CC(C)(C)C)CO2 (stereo in doubt) [Compound 1675] | +++ (+++ is >60+) |  |  |
| Cc1cccc(C)c1-c1cc2nc(n1)NS(=O)(=O)c1cccc(c1)C(=O)N(Cc1cncc(N(C)C3CCC3)n1)[C@H](C1CCCCC1)CO2 [Compound 1733] |  | +++ (+++ is >60+) | EC50 [2, 4]: < 1000 nM; Emax ([2]; with 44 nM potentiator): > 60% |
| Cc1cccc(C)c1-c1cc2nc(n1)NS(=O)(=O)c1cccc(c1)C(=O)N(Cc1cncc(N3[C@H](C)CC[C@H]3C)n1)[C@H](CCC(C)(C)C)CO2 [Compound 1947] |  | +++ (+++ is >60+) |  |
| Cc1cccc(C)c1-c1cc2nc(n1)NS(=O)(=O)c1cccc(c1)C(=O)N(Cc1cncc(N(C)CCC(C)C)n1)[C@H](CC(C)(C)C)CO2 [Compound 1696] | +++ (+++ is >60+) |  |  |
| CC[C@H]1CCCN1c1cncc(CN2C(=O)c3cccc(c3)S(=O)(=O)Nc3nc(cc(-c4c(C)cccc4C)n3)OC[C@H]2COC2CC2)n1 (stereo in doubt) [Compound 1890] |  | +++ (+++ is >60+) |  |

Now from value to molecule, other results behind:

| HBE2 Activity at 3 μM (%) ([2]; 3 μM, with 44 nM potentiator) | HBE2 Activity at 3 μM (%) [2, 3] | SMILES | also measured |
| --- | --- | --- | --- |
| +++ (+++ is >60+) |  | Cc1ccccc1-c1cc2nc(n1)NS(=O)(=O)c1cccc(c1)C(=O)N(Cc1cncc(N(C)C3CCC3)n1)[C@H](CC(C)(C)C)CO2 [Compound 1705] | EC50 ([2]; with 44 nM potentiator): < 1000 nM; Emax ([2]; with 44 nM potentiator): > 60% |
|  | +++ (+++ is >60+) | COCCN(C)c1cncc(CN2C(=O)c3cccc(c3)S(=O)(=O)Nc3nc(cc(-c4c(C)cccc4C)n3)OC[C@H]2CCC(C)(C)C)n1 [Compound 1812] |  |
| +++ (+++ is >60+) |  | Cc1cccc(C)c1-c1cc2nc(n1)NS(=O)(=O)c1cccc(c1)C(=O)N(Cc1cnc(N3CC(C)(C)C3)cn1)[C@H](CC(C)(C)C)CO2 [Compound 1654] |  |
| +++ (+++ is >60+) |  | CC[C@H](C)N(C)c1cncc(CN2C(=O)c3cccc(c3)S(=O)(=O)Nc3nc(cc(-c4c(C)cccc4C)n3)OC[C@H]2CC(C)(C)C)n1 [Compound 1673] | EC50 ([2]; with 44 nM potentiator): < 1000 nM; Emax ([2]; with 44 nM potentiator): > 60% |
| +++ (+++ is >60+) |  | Cc1cccc(C)c1-c1cc2nc(n1)NS(=O)(=O)c1cccc(c1)C(=O)N(Cc1cncc(N(C)CCO)n1)[C@H](CC(C)(C)C)CO2 [Compound 1665] |  |
| +++ (+++ is >60+) |  | COC(=O)N1CC2CCN(c3cncc(CN4C(=O)c5cccc(c5)S(=O)(=O)Nc5nc(cc(-c6c(C)cccc6C)n5)OC[C@H]4CC(C)(C)C)n3)C2C1 (some centres unmarked) [Compound 1681] |  |
|  | +++ (+++ is >60+) | Cc1cccc(C)c1-c1cc2nc(n1)NS(=O)(=O)c1cccc(c1)C(=O)N(Cc1cnc3cc(C(C)C)oc3n1)[C@H](CC(C)(C)C)CO2 [Compound 1882] |  |
|  | +++ (+++ is >60+) | Cc1cccc(C)c1-c1cc2nc(n1)NS(=O)(=O)c1cccc(c1)C(=O)N(Cc1cncc(N3CC[C@H]4CC[C@H]43)n1)[C@H](CCC(C)(C)C)CO2 (stereo in doubt) [Compound 1855] |  |
|  | +++ (+++ is >60+) | Cc1cccc(C)c1-c1cc2nc(n1)NS(=O)(=O)c1cccc(c1)C(=O)N(Cc1cccc(N3CCC[C@H]3C)n1)[C@H](CC1(C)CCC1)CO2 [Compound 1777] |  |
|  | +++ (+++ is >60+) | Cc1cccc(C)c1-c1cc2nc(n1)NS(=O)(=O)c1cccc(c1)C(=O)N(Cc1cncc(N(C)CC3CC3)n1)[C@H](CCC(C)(C)C)CO2 [Compound 1810] |  |
|  | +++ (+++ is >60+) | Cc1cccc(C)c1-c1cc2nc(n1)NS(=O)(=O)c1cccc(c1)C(=O)N(Cc1cncc(N3CC[C@H]4CC[C@H]43)n1)[C@H](CCC(C)(C)C)CO2 [Compound 1854] |  |
| +++ (+++ is >60+) |  | Cc1cccc(C)c1-c1cc2nc(n1)NS(=O)(=O)c1cccc(c1)C(=O)N(Cc1cncc(N3CCCC3CC(=O)N(C)C)n1)[C@H](CC(C)(C)C)CO2 (some centres unmarked) [Compound 1658] |  |
|  | +++ (+++ is >60+) | Cc1cccc(C)c1-c1cc2nc(n1)NS(=O)(=O)c1cccc(c1)C(=O)N(Cc1cncc(N3CCC[C@H]3C)n1)[C@H](CCC(C)(C)C)CO2 [Compound 1814] |  |
|  | +++ (+++ is >60+) | Cc1cccc(C)c1-c1cc2nc(n1)NS(=O)(=O)c1cccc(c1)C(=O)N(Cc1cncc(N(C)C)n1)[C@H](CCC(C)(C)C)CO2 [Compound 1806] |  |
|  | +++ (+++ is >60+) | CCN(CC1CC1)c1cncc(CN2C(=O)c3cccc(c3)S(=O)(=O)Nc3nc(cc(-c4c(C)cccc4C)n3)OC[C@H]2CC(C)(C)C)n1 [Compound 1780] |  |
| +++ (+++ is >60+) |  | Cc1cccc(C)c1-c1cc2nc(n1)NS(=O)(=O)c1cccc(c1)C(=O)N(Cc1cncc(N(C)C3CCC3)n1)[C@H](C1CC3(CCC3)C1)CO2 (single isomer, unassigned) [Compound 1320, 12-[[6-[Cyclobutyl(methyl)amino]pyrazin-2-yl]methyl]-6-(2,6-dimethylphenyl)-2,2-dioxo-11-spiro[3.3]heptan-2-yl-9-oxa-2λ^6-thia-3,5,12,19-tetrazatricyclo[12.3.1.14,8]nonadeca-1(18),4(19),5,7,14,16-hexaen-13-one] | EC50 ([2]; with 44 nM potentiator): < 1000 nM; Emax ([2]; with 44 nM potentiator): > 60% |
